Test results reported in US11986471B2, “Compounds and methods of use” (Tango Therapeutics, Inc., priority 2018, dated 2024).
pIC50: −log10 of the molar value.

What was measured:
[1] = target: T1, PRMT5 (Homo sapiens, UniProt O14744); assay: PRMT5 IC50 assay in the presence of SAM as cofactor; format: biochemical
T1 construct: purchased Viva (custom protein)
Outline: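 Three cofactor conditions are run: SAM-bound, MTA-bound and cofactor-free enzyme. IC50 is read from each; for the SAM and MTA arms it is divided by 1.5 and 13.5 respectively to give Ki.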

[2] = target: T1, PRMT5; assay: PRMT5 IC50 assay in the presence of MTA as cofactor; format: biochemical; settings: for pIC50: PRMT5, MTA as cofactor
Outline: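 IC50 against PRMT5 determined with SAM as cofactor, with no cofactor, and with MTA as cofactor. Ki derived as IC50/1.5 for the SAM assay and IC50/13.5 for the MTA assay; SAM Ki to MTA Ki ratio also reported.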

[3] = test system: HAP1 MTAP-intact; assay: SDMA in-cell western assay, HAP1 MTAP-intact cell line; format: cell-based; settings: Homo sapiens
Outline: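 Symmetric dimethylarginine (SDMA) levels were measured by in-cell western in an isogenic HAP1 pair, one expressing endogenous MTAP and one MTAP-null, and IC50 values were derived for each line. Compounds whose IC50 ratio between the lines is 3-fold or more are classed as MTAP-selective.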

[4] = test system: HAP1 MTAP-deleted; assay: SDMA in-cell western assay, HAP1 MTAP-deleted cell line; format: cell-based; settings: for pIC50: Homo sapiens, HAP1 MTAP-deleted cell line; for MTAP Intact/Deleted Ratio: IC50 ratio HAP1 MTAP-intact / HAP1 MTAP-deleted
Outline: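 Symmetric dimethylarginine (SDMA) levels were measured by in-cell western in MTAP-null HAP1 cells, one half of an MTAP-isogenic pair whose partner line expresses endogenous MTAP. Compound potency is reported as IC50.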

[5] = target: T1, PRMT5; assay: PRMT5 IC50 assay with no cofactor; format: biochemical
Outline: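 Three cofactor conditions tested for PRMT5 inhibition: none, MTA and SAM, each giving an IC50. For conversion to Ki, the MTA-condition IC50 is divided by 13.5 and the SAM-condition IC50 by 1.5, and the two Ki values are expressed as a SAM/MTA ratio.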

[6] = ratio between the Ki in the presence of SAM and the Ki in the presence of MTA
[7] = ratio between Ki in the presence of SAM and Ki in the presence of MTA

T1 sequence (O14744 whole entry): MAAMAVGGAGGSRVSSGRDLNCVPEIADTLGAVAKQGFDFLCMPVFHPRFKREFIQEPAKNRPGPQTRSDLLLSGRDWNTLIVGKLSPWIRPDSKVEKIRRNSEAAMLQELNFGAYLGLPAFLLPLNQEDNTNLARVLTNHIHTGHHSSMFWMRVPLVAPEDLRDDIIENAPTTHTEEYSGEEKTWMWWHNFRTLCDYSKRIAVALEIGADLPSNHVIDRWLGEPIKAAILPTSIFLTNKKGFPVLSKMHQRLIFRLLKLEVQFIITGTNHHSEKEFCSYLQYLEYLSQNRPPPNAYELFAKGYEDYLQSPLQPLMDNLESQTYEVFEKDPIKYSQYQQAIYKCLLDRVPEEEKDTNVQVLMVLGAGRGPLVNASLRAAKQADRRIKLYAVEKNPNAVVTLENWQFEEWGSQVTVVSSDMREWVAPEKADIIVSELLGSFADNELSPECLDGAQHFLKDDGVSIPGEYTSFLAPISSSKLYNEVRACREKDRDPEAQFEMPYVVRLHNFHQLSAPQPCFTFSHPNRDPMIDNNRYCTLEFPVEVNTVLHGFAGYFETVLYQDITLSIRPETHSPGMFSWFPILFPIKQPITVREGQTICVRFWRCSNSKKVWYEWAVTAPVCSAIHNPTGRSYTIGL
T1 sequence (Q9BQA1 whole entry partner): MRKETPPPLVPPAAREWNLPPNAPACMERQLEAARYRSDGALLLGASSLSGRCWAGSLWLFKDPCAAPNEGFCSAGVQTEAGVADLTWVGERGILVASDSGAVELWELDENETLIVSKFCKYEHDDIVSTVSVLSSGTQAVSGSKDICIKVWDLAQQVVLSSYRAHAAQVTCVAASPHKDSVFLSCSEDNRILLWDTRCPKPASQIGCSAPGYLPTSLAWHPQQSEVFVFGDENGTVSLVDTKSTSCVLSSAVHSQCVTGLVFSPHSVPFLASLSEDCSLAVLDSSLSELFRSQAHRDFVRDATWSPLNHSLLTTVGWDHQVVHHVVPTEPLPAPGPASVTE

Compound	pIC50 [1]	pIC50 [2]	pIC50 [3]	pIC50 [4]	MTAP Intact/Deleted Ratio [4]	pIC50 [5]	SAM/MTA Ratio [2, 6]	SAM/MTA Ratio [2, 7]	pIC50 ([5]; read-out: No Co-factor IC50)
Cc1ncoc1COc1cc(F)c2c(c1C)CCN(C[C@@H](O)CNC(=O)c1ccnc(NC3CCC3)c1)C2 [Compound 619, 2-(cyclobutylamino)-N-[(2S)-3-[8-fluoro-5-methyl-6-[(4-methyloxazol-5-yl)methoxy]-3,4-dihydro-1H-isoquinolin-2-yl]-2-hydroxy-propyl]pyridine-4-carboxamide]	6.30 to 7.30	6.30 to 7.30	≤ 5.00	5.00 to 6.00	C* (an IC50 ratio of less than 3 fold between the IC50 in the HAP1 MTAP-intact cell line and the HAP1 MTAP-deleted cell line)	5.30 to 6.30	–	–	–
Cc1ncoc1COc1ccc2c(c1)CCN(C[C@@H](O)CNC(=O)c1cc(NC3CCC3)ccn1)C2 [Compound 516, 4-(cyclobutylamino)-N-[(2S)-2-hydroxy-3-(6-[(4-methyl-1,3-oxazol-5-yl)methoxy]-1,2,3,4-tetrahydroisoquinolin-2-yl}propyl]pyridine-2-carboxamide]	6.30 to 7.30	6.30 to 7.30	> 6.00	> 6.00	C* (an IC50 ratio of less than 3 fold between the IC50 in the HAP1 MTAP-intact cell line and the HAP1 MTAP-deleted cell line)	5.30 to 6.30	A (a Ki ratio greater than or equal to 10 fold between the Ki in the presence of SAM and the Ki in the presence of MTA)	–	–
CCCN(C)c1nc(NC2COC2)cc(C(=O)NC[C@H](O)CN2CCc3c(ccc(OCc4cnco4)c3Cl)C2)n1 [Compound 312, (S)—N-(3-(5-chloro-6-(oxazol-5-ylmethoxy)-3N-dihydroisoquinolin-2(1H)-yl)-2-hydroxypropyl)-2-(methyl(propyl)amino)-6-(oxetan-3-ylamino)pyrimidine-4-carboxamide]	6.30 to 7.30	6.30 to 7.30	≤ 5.00	5.00 to 6.00	B* (an IC50 ratio greater than or equal to 3 fold but lower than 10 fold between the IC50 in the HAP1 MTAP-intact cell line and the HAP1 MTAP-deleted cell line)	–	–	A (a Ki ratio greater than or equal to 10 fold between the Ki in the presence of SAM and the Ki in the presence of MTA)	5.30 to 6.30
CC(=O)N1CCN(c2nc(NC3COC3)cc(C(=O)NC[C@H](O)CN3CCc4c(ccc(OCc5ocnc5C)c4C)C3)n2)CC1 [Compound 499, 2-(4-acetylpiperazin-1-yl)-N-[(2S)-2-hydroxy-3-{5-methyl-6-[(4-methyl-1,3-oxazol-5-yl)methoxy]-1,2,3,4-tetrahydroisoquinolin-2-yl}propyl]-6-[(oxetan-3-yl)amino]pyrimidine-4-carboxamide]	5.30 to 6.30	6.30 to 7.30	≤ 5.00	≤ 5.00	C* (an IC50 ratio of less than 3 fold between the IC50 in the HAP1 MTAP-intact cell line and the HAP1 MTAP-deleted cell line)	≤ 5.30	A (a Ki ratio greater than or equal to 10 fold between the Ki in the presence of SAM and the Ki in the presence of MTA)	–	–
COCCN(C)c1nc(NC2COC2)cc(C(=O)NC[C@H](O)CN2CCc3cc(OCc4cnco4)ccc3C2)n1 [Compound 295, (S)—N-(2-hydroxy-3-(6-(oxazol-5-ylmethoxy)-3N-dihydroisoquinolin-2(1H)-yl)propyl)-2-((2-methoxyethyl)(methyl)amino)-6-(oxetan-3-ylamino)pyrimidine-4-carboxamide]	6.30 to 7.30	6.30 to 7.30	> 6.00	> 6.00	C* (an IC50 ratio of less than 3 fold between the IC50 in the HAP1 MTAP-intact cell line and the HAP1 MTAP-deleted cell line)	–	–	A (a Ki ratio greater than or equal to 10 fold between the Ki in the presence of SAM and the Ki in the presence of MTA)	5.30 to 6.30
O=C(NC[C@H](O)CN1CCc2c(ccc(OCc3cnco3)c2Cl)C1)c1cc(NC2CCC2)nc(N2CCN(C(=O)C3CC3)CC2)c1 [Compound 571, (S)—N-(3-(5-chloro-6-(oxazol-5-ylmethoxy)-3N-dihydroisoquinolin-2(1H)-yl)-2-hydroxypropyl)-2-(cyclobutylamino)-6-(4-(cyclopropanecarbonyl)piperazin-1-yl)isonicotinamide]	6.30 to 7.30	6.30 to 7.30	≤ 5.00	> 6.00	A* (an IC50 ratio greater than or equal to 10 fold between the IC50 in the HAP1 MTAP-intact cell line and the HAP1 MTAP-deleted cell line)	5.30 to 6.30	A (a Ki ratio greater than or equal to 10 fold between the Ki in the presence of SAM and the Ki in the presence of MTA)	–	–
Cc1ncoc1COc1ccc2c(c1Br)CCN(C[C@@H](O)CNC(=O)c1cccc(NC3COC3)c1)C2 [Compound 381, (S)—N-(3-(5-bromo-6-((4-methyloxazol-5-yl)methoxy)-3,4-dihydroisoquinolin-2(1H)-yl)-2-hydroxypropyl)-3-(oxetan-3-ylamino)benzamide]	5.30 to 6.30	5.30 to 6.30	≤ 5.00	≤ 5.00	C* (an IC50 ratio of less than 3 fold between the IC50 in the HAP1 MTAP-intact cell line and the HAP1 MTAP-deleted cell line)	–	–	A (a Ki ratio greater than or equal to 10 fold between the Ki in the presence of SAM and the Ki in the presence of MTA)	≤ 5.30
O=C(NC[C@H](O)CN1CCc2cc(OCc3cnco3)ccc2C1)c1cncc(NC2CCC2)c1 [Compound 270, (S)-5-(cyclobutylamino)-N-(2-hydroxy-3-(6-(oxazol-5-ylmethoxy)-3N-dihydroisoquinolin-2(1H)-yl)propyl)nicotinamide]	6.30 to 7.30	6.30 to 7.30	> 6.00	> 6.00	C* (an IC50 ratio of less than 3 fold between the IC50 in the HAP1 MTAP-intact cell line and the HAP1 MTAP-deleted cell line)	–	–	A (a Ki ratio greater than or equal to 10 fold between the Ki in the presence of SAM and the Ki in the presence of MTA)	5.30 to 6.30
Cc1ncoc1COc1ccc2c(c1C)CCN(C[C@@H](O)CNC(=O)c1ccnc(NC3CCC3)c1)C2 [Compound 272, (S)-2-(cyclobutylamino)-N-(2-hydroxy-3-[5-methyl-6-((4-methyloxazol-5-yl)methoxy)-3N-dihydroisoquinolin-2(1H)-yl)propyl)isonicotinamide]	6.30 to 7.30	6.30 to 7.30	≤ 5.00	5.00 to 6.00	C* (an IC50 ratio of less than 3 fold between the IC50 in the HAP1 MTAP-intact cell line and the HAP1 MTAP-deleted cell line)	–	–	A (a Ki ratio greater than or equal to 10 fold between the Ki in the presence of SAM and the Ki in the presence of MTA)	≤ 5.30
CC(C)Cc1cc(C(=O)NC[C@H](O)CN2CCc3c(ccc(OCc4cnco4)c3Cl)C2)cc(NC2CCC2)n1 [Compound 287]	5.30 to 6.30	5.30 to 6.30	≤ 5.00	≤ 5.00	C* (an IC50 ratio of less than 3 fold between the IC50 in the HAP1 MTAP-intact cell line and the HAP1 MTAP-deleted cell line)	–	–	A (a Ki ratio greater than or equal to 10 fold between the Ki in the presence of SAM and the Ki in the presence of MTA)	≤ 5.30
CC(=O)N1CCC(Nc2cc(C(=O)NC[C@H](O)CN3CCc4cc(OCc5ocnc5C)ccc4C3)cc(N(C)C)n2)CC1 [Compound 629, (S)-2-((1-acetylpiperidin-4-yl)amino)-6-(dimethylamino)-N-(2-hydroxy-3-(6-((4-methyloxazol-5-yl)methoxy)-3,4-dihydroisoquinolin-2(1H)-yl)propyl)isonicotinamide]	6.30 to 7.30	6.30 to 7.30	5.00 to 6.00	> 6.00	A* (an IC50 ratio greater than or equal to 10 fold between the IC50 in the HAP1 MTAP-intact cell line and the HAP1 MTAP-deleted cell line)	–	–	A (a Ki ratio greater than or equal to 10 fold between the Ki in the presence of SAM and the Ki in the presence of MTA)	5.30 to 6.30
CC(=O)N1CCC(Nc2cc(C(=O)NC[C@H](O)CN3CCc4c(ccc(OCc5cnco5)c4C)C3)ccn2)CC1 [Compound 517]	6.30 to 7.30	6.30 to 7.30	≤ 5.00	5.00 to 6.00	B* (an IC50 ratio greater than or equal to 3 fold but lower than 10 fold between the IC50 in the HAP1 MTAP-intact cell line and the HAP1 MTAP-deleted cell line)	5.30 to 6.30	A (a Ki ratio greater than or equal to 10 fold between the Ki in the presence of SAM and the Ki in the presence of MTA)	–	–
Cc1c(OCc2cnco2)ccc2c1CCN(C[C@@H](O)CNC(=O)c1cc(NC3CCN(C(=O)C4CCC4)CC3)ncn1)C2 [Compound 536, 6-[(1-cyclobutanecarbonylpiperidin-4-yl)amino]-N-[(2S)-2-hydroxy-3-{5-methyl-6-[(1,3-oxazol-5-yl)methoxy]-1,2,3,4-tetrahydroisoquinolin-2-yl}propyl]pyrimidine-4-carboxamide]	6.30 to 7.30	6.30 to 7.30	≤ 5.00	5.00 to 6.00	B* (an IC50 ratio greater than or equal to 3 fold but lower than 10 fold between the IC50 in the HAP1 MTAP-intact cell line and the HAP1 MTAP-deleted cell line)	5.30 to 6.30	A (a Ki ratio greater than or equal to 10 fold between the Ki in the presence of SAM and the Ki in the presence of MTA)	–	–
